# How the values were obtained:
# Oryza sativa [1] = assay: Table 13 greenhouse trial, treatment at the 5-6 leaf stage: rice damage; assay type: in vivo; settings: 20 days after application
# Method: (§1) Seeds or rhizome pieces of mono- and dicotyledonous weed plants are placed into sandy loam soil in plastic pots, covered with soil and grown in a greenhouse under good growth conditions (temperature, atmospheric humidity, water supply). Weeds which are encountered in the cultivation of rice are cultivated in pots in which the water level is up to 2 cm over the soil surface. Three weeks after sowing, the test plants are treated at the three-leaf stage. The active compound combinations according to the invention, formulated as wettable powders or emulsion concentrates, and, in parallel experiments, the correspondingly formulated individual active compounds are sprayed onto the green parts of the plants at different dosages using an amount of water of 300 to 600 l/ha (converted), and, after about 3 to 4 weeks of the test plants in the greenhouse under optimum growth conditions (temperature, atmospheric humidity, water supply), the effect of the preparations is evaluated visually in comparison to untreated controls. In the case of rice or weeds which are encountered in the cultivation of rice, the active compounds are also added directly to the water for irrigation (application analogous to the so-called granules application) or sprayed onto plants and added to the water for irrigation. The experiments were designed with several, up to five, repetitions. The herbicidal compositions according to the invention also have good herbicidal post-emergence activity against a broad spectrum of economically important weed grasses and broad-leaved weeds.
# (§2) Greenhouse trial: Treatment at the 5-6 leaf stage, evaluation 20 days after the application.
# Sagittaria pygmaea [2] = assay: Table 13 greenhouse trial, treatment at the 5-6 leaf stage: weed control; assay type: in vivo; settings: 20 days after application
# Method: as §1, §2
# Oryza sativa [3] = assay: Table 9 greenhouse trial, treatment at the 1-2 leaf stage: rice damage; assay type: in vivo; settings: 22 days after application
# Method: as §1
# (§3) Greenhouse trial: Treatment at the 1-2 leaf stage, evaluation 22 days after the application.
# Echinochloa crusgalli [4] = assay: Table 9 greenhouse trial, treatment at the 1-2 leaf stage: weed control; assay type: in vivo; settings: 22 days after application
# Method: as §1, §3
# Sagittaria pygmaea [5] = assay: Table 22 field trial, treatment: 1-2 leaf stage: weed control; assay type: in vivo; settings: 28 days after application
# Description: Field trial: Treatment: 1-2 leaf stage, evaluation 28 days after the application.
# Polygonum convolvulus = assay: Table 25 field trial, treatment at the 3 leaf stage: weed control; assay type: in vivo; settings: 33 days after application
# Description: (§4) Field trial: Treatment at the 3 leaf stage, evaluation 33 days after the application.
# Oryza sativa [6] = assay: Table 25 field trial, treatment at the 3 leaf stage: rice damage; assay type: in vivo; settings: 33 days after application
# Description: as §4
# Cyperus serotinus [7] = assay: Table 12 greenhouse trial, treatment at the 1-2 leaf stage: weed control; assay type: in vivo; settings: 20 days after application
# Method: as §1
# (§5) Greenhouse trial: Treatment at the 1-2 leaf stage, evaluation 20 days after the application.
# Oryza sativa [8] = assay: Table 12 greenhouse trial, treatment at the 1-2 leaf stage: rice damage; assay type: in vivo; settings: greenhouse trial, 20 days after application
# Method: as §1, §5
# Cyperus serotinus [9] = assay: Table 21 field trial, treatment at the 2 leaf stage: weed control; assay type: in vivo; settings: 28 days after application
# Description: (§6) Field trial: Treatment at the 2 leaf stage, evaluation 28 days after the application.
# Oryza sativa [10] = assay: Table 21 field trial, treatment at the 2 leaf stage: rice damage; assay type: in vivo
# Description: as §6
# Echinochloa crusgalli [11] = assay: Table 18 field trial, treatment at the 1-2 leaf stage: weed control; assay type: in vivo; settings: 14 days after application
# Description: (§7) Field trial: Treatment at the 1-2 leaf stage, evaluation 14 days after the application.
# Oryza sativa [12] = assay: Table 4 field trial: rice damage
# Method: (§10) The examples mentioned below were carried out in the greenhouse, and in some instances, in field trials.
# Echinochloa crusgalli [13] = assay: Table 4 field trial: weed control; assay type: in vivo
# Method: as §10
# Oryza sativa [14] = assay: Table 18 field trial, treatment at the 1-2 leaf stage: rice damage; assay type: in vivo; settings: 14 days after application
# Description: as §7
# Oryza sativa [15] = assay: Table 20 field trial, treatment at the 4-6 leaf stage: rice damage; assay type: in vivo; settings: 28 days after application
# Description: (§8) Field trial: Treatment at the 4-6 leaf stage, evaluation 28 days after the application.
# Ipomoea hederacea = assay: Table 20 field trial, treatment at the 4-6 leaf stage: weed control; assay type: in vivo; settings: 28 days after application
# Description: as §8
# Commelina benghalensis = assay: Table 26 field trial, treatment at the 3 leaf stage: weed control; assay type: in vivo; settings: 33 days after application
# Description: as §4
# Oryza sativa [16] = assay: Table 26 field trial, treatment at the 3 leaf stage: rice damage; assay type: in vivo; settings: 33 days after application
# Description: as §4
# Cyperus serotinus [17] = assay: Table 19 field trial, treatment at the 2 leaf stage: weed control; assay type: in vivo; settings: 14 days after application
# Description: (§9) Field trial: Treatment at the 2 leaf stage, evaluation 14 days after the application.
# Oryza sativa [18] = assay: Table 19 field trial, treatment at the 2 leaf stage: rice damage; assay type: in vivo; settings: 14 days after application
# Description: as §9
# Oryza sativa [19] = assay: Table 2 field trial, treatment at the 1-2 leaf stage rice: rice damage; settings: 28 days after application
# Method: as §10
# Cyperus irria = assay: Table 3 field trial, treatment at the 2 leaf stage weed grasses: weed control; assay type: in vivo; settings: 28 days after application
# Method: as §10
# ECHCO = assay: Table 2 field trial, treatment at the 2-3 leaf stage weed grasses: weed control; assay type: in vivo, Echinochloa colona; settings: 28 days after application
# Method: as §10
# Leptochloa filiformis = assay: Table 2a field trial, treatment at the 2-3 leaf stage weed grasses: weed control; assay type: in vivo; settings: 28 days after application
# Method: as §10
# Oryza sativa [20] = assay: Table 3 field trial, treatment at the 4-5 leaf stage (seed rice): rice damage; settings: 28 days after application
# Method: as §10
# Oryza sativa [21] = assay: Table 2a field trial, treatment at the 1-2 leaf stage rice: rice damage; settings: 28 days after application
# Method: as §10
# Eleusine indica = assay: Table 2 field trial, treatment at the 2-3 leaf stage weed grasses: weed control; assay type: in vivo; settings: 28 days after application
# Method: as §10
smiles,measurement,setting,value
"CCN(C(=O)n1nnn(-c2ccccc2Cl)c1=O)C1CCCCC1 [B17), 4-(2-chlorophenyl)-5-oxo-4,5-dihydro-tetrazole-1-carboxylic acid cyclohexyl-ethyl-amide]",ORYSW % damage,Oryza sativa [1]; 50 g of ai/ha,0%
same,ORYSW % damage,Oryza sativa [1]; 100 g of ai/ha,0%
same,ORYSW % damage,Oryza sativa [1]; 200 g of ai/ha,0%
same,SAGPY % control,Sagittaria pygmaea [2]; 50 g of ai/ha,0%
same,SAGPY % control,Sagittaria pygmaea [2]; 100 g of ai/ha,40%
same,SAGPY % control,Sagittaria pygmaea [2]; 200 g of ai/ha,80%
"COc1cc(OC)nc(Oc2cccc(Oc3nc(OC)cc(OC)n3)c2C(=O)O)n1 [B48), sodium 2,6-bis[(4,6-dimethoxypyrimidin-2-yl)oxy]-benzoate]",ORYSW % damage,Oryza sativa [3]; 19 g of ai/ha,0%
same,ORYSW % damage,Oryza sativa [3]; 38 g of ai/ha,0%
same,ORYSW % damage,Oryza sativa [3]; 75 g of ai/ha,5%
same,ECHCG % control,Echinochloa crusgalli [4]; 19 g of ai/ha,15%
same,ECHCG % control,Echinochloa crusgalli [4]; 38 g of ai/ha,30%
same,ECHCG % control,Echinochloa crusgalli [4]; 75 g of ai/ha,40%
"CN(C(=O)COc1nc2ccccc2s1)c1ccccc1 [B5), 2-(2-benzothiazolyloxy)-N-methyl-N-phenylacetamide]",SAGPY % control,Sagittaria pygmaea [5]; 600 g of ai/ha,0%
same,SAGPY % control,Sagittaria pygmaea [5]; 1200 g of ai/ha,0%
same,SAGPY % control,Sagittaria pygmaea [5]; 2400 g of ai/ha,0%
"COc1c(Cl)ccc(Cl)c1C(=O)O [B31), 3,6-dichloro-o-anisic acid]",POLCO % control,Polygonum convolvulus; 240 g of ai/ha,45%
same,POLCO % control,Polygonum convolvulus; 480 g of ai/ha,80%
same,ORYSW % damage,Oryza sativa [6]; 240 g of ai/ha,8%
same,ORYSW % damage,Oryza sativa [6]; 480 g of ai/ha,10%
"COCCOc1ccccc1S(=O)(=O)NC(=O)Nc1nc(OC)nc(OC)n1 [B60), N-[[(4,6-dimethoxy-1,3,5-triazin-2-yl)amino]carbonyl]-2-(2-methoxyethoxy)benzolsulfonamide]",CYPSE % control,Cyperus serotinus [7]; 15 g of ai/ha,0%
same,CYPSE % control,Cyperus serotinus [7]; 30 g of ai/ha,15%
same,CYPSE % control,Cyperus serotinus [7]; 60 g of ai/ha,15%
same,ORYSW % damage,Oryza sativa [8]; 15 g of ai/ha,0%
same,ORYSW % damage,Oryza sativa [8]; 30 g of ai/ha,0%
same,ORYSW % damage,Oryza sativa [8]; 60 g of ai/ha,5%
"CSC(=O)c1c(C(F)F)nc(C(F)(F)F)c(C(=O)SC)c1CC(C)C [B24), S,S′-dimethyl-2-(difluoromethyl)-4-(2-methylpropyl)-6-(trifluoromethyl)-3,5-pyridindicarbothioate]",CYPSE % control,Cyperus serotinus [9]; 60 g of ai/ha,60%
same,ORYSW % damage,Oryza sativa [10]; in vivo,6%
"C[C@@H](Oc1ccc(Oc2nc3ccc(Cl)cc3o2)cc1)C(=O)O [B20), (R)-2-[4-(6-chloro-1,3-benzoxazol-2-yloxy)phenoxy]-propionic acid]",ECHCG % control,Echinochloa crusgalli [11]; 30 g of ai/ha,75%
same,ORYSW % damage,Oryza sativa [12]; 10 g of ai/ha,0%
same,ORYSW % damage,Oryza sativa [12]; 20 g of ai/ha,0%
same,ECHCG % control,Echinochloa crusgalli [13]; 10 g of ai/ha,0%
same,ECHCG % control,Echinochloa crusgalli [13]; 20 g of ai/ha,0%
same,ORYSW % damage,Oryza sativa [14]; 30 g of ai/ha,0%
"CCSC(=O)N1CCCCCC1 [B10), S-ethyl hexahydro-1H-azepin-1-carbothioate]",ORYSW % damage,Oryza sativa [15]; 4480 g of ai/ha,0%
same,IPOHE % control,Ipomoea hederacea; 4480 g of ai/ha,55%
"COc1nc(C)nc(NC(=O)NS(=O)(=O)c2ccccc2C(=O)O)n1 [B57), 2-(4-methoxy-6-methyl-1,3,5-triazin-2-ylcarbamoyl-sulfamoyl)benzoic acid]",COMBE % control,Commelina benghalensis; 1 g of ai/ha,20%
same,COMBE % control,Commelina benghalensis; 2 g of ai/ha,68%
same,ORYSW % damage,Oryza sativa [16]; 1 g of ai/ha,0%
same,ORYSW % damage,Oryza sativa [16]; 2 g of ai/ha,0%
"CC(C)=C1OC(=O)N(c2cc(OC3CCCC3)c(Cl)cc2F)C1=O [B70), 3-(4-chloro-5-cyclopentyloxy-2-fluorophenyl)-5-iso-propylidene-1,3-oxazolidine-2,4-dione]",CYPSE % control,Cyperus serotinus [17]; 150 g of ai/ha,50%
same,CYPSE % control,Cyperus serotinus [17]; 450 g of ai/ha,65%
same,ORYSW % damage,Oryza sativa [18]; 150 g of ai/ha,0%
same,ORYSW % damage,Oryza sativa [18]; 450 g of ai/ha,0%
"CCN(CC)C(=O)SCc1ccc(Cl)cc1 [B11), S-[(4-chlorophenyl)methyl]diethylcarbamothioate]",ORYSW % damage,Oryza sativa [15]; 3300 g of ai/ha,3%
same,IPOHE % control,Ipomoea hederacea; 3300 g of ai/ha,43%
C#CCN(C)c1c(C#N)cnn1-c1nn2c(c1Cl)CCCC2 [B33b)],CYPSE % control,Cyperus serotinus [17]; 100 g of ai/ha,40%
same,CYPSE % control,Cyperus serotinus [17]; 200 g of ai/ha,50%
same,CYPSE % control,Cyperus serotinus [17]; 400 g of ai/ha,80%
same,ORYSW % damage,Oryza sativa [18]; 100 g of ai/ha,6%
same,ORYSW % damage,Oryza sativa [18]; 200 g of ai/ha,8%
same,ORYSW % damage,Oryza sativa [18]; 400 g of ai/ha,12%
"O=C(O)COc1nc(Cl)c(Cl)cc1Cl [B40), [(3,5,6-trichloro-2-pyridinyl)oxy]acetic acid]",ORYSW % damage,Oryza sativa [15]; 420 g of ai/ha,20%
same,IPOHE % control,Ipomoea hederacea; 420 g of ai/ha,65%
"CC(C)(SC(=O)N1CCCCC1)c1ccccc1 [B9), S-(1-methyl-1-phenylethyl)1-piperidincarbothioate]",CYPSE % control,Cyperus serotinus [9]; 3000 g of ai/ha,45%
same,ORYSW % damage,"Oryza sativa [10]; 3000 g of ai/ha, field trial, 28 days after application",5%
"COc1cccc(N(C)C(=S)Oc2cccc(C(C)(C)C)c2)n1 [B12), O-[3-(1,1-dimethylethyl)phenyl](6-methoxy-2-pyridinyl)methylcarbamothioate]",CYPSE % control,Cyperus serotinus [9]; 600 g of ai/ha,65%
same,ORYSW % damage,"Oryza sativa [10]; 600 g of ai/ha, field trial, 28 days after application",3%
"CCOc1ccccc1OS(=O)(=O)NC(=O)Nc1nc(OC)cc(OC)n1 [B63a), ethoxysulfuron]",ECHCG % control,Echinochloa crusgalli [11]; 5 g of ai/ha,7%
same,ECHCG % control,Echinochloa crusgalli [11]; 10 g of ai/ha,7%
same,ORYSW % damage,Oryza sativa [19]; 45 g of ai/ha,10%
same,ORYSW % damage,Oryza sativa [19]; 60 g of ai/ha,10%
same,CYPIR % control,Cyperus irria; 22.5 g of ai/ha,60%
same,CYPIR % control,Cyperus irria; 45 g of ai/ha,95%
same,ECHCO % control,ECHCO; 45 g of ai/ha,0%
same,ECHCO % control,ECHCO; 60 g of ai/ha,0%
same,LEFFI % control,Leptochloa filiformis; 45 g of ai/ha,0%
same,LEFFI % control,Leptochloa filiformis; 60 g of ai/ha,0%
same,ORYSW % damage,Oryza sativa [20]; 22.5 g of ai/ha,0%
same,ORYSW % damage,Oryza sativa [20]; 45 g of ai/ha,0%
same,ORYSW % damage,Oryza sativa [14]; 5 g of ai/ha,7%
same,ORYSW % damage,Oryza sativa [14]; 10 g of ai/ha,7%
same,ORYSW % damage,Oryza sativa [21]; 45 g of ai/ha,10%
same,ORYSW % damage,Oryza sativa [21]; 60 g of ai/ha,10%
same,ELEIN % control,Eleusine indica; 45 g of ai/ha,0%
same,ELEIN % control,Eleusine indica; 60 g of ai/ha,0%
"CCC1(CC2(c3cccc(Cl)c3)CO2)C(=O)c2ccccc2C1=O (racemic) [B71), (RS)-2-[2-(3-chlorophenyl)-2,3-epoxypropyl]-2-ethyl-indane-1,3-dione]",CYPSE % control,Cyperus serotinus [9]; 150 g of ai/ha,55%
same,ORYSW % damage,Oryza sativa [10]; in vivo,4%
